We go through two compounds from patent publication US9950062B2, “Compounds and compositions as TLR activity modulators” (priority 2009, dated 2018).

Data set [1] can be described thus: Adsorption to aluminum hydroxide, LC-MS/MS of supernatant. To be noted: 10 mM histidine buffer pH 6.8; final compound concentration 0.1 mg/mL; 37° C. for 5 hours; 100% minus % unbound. Here is the method:
The resulting solution was diluted 10-fold with blank histidine buffer to a final compound concentration of 0.1 mg/mL. Diluted solutions were incubated at 37° C. for 5 hours. The samples were centrifuged at 14,000 rpm for 10 minutes to pellet the insoluble. The supernatant (along with an internal standard) was then evaluated by LC-MS/MS using a ballistic gradient (from 5% CH3CN-0.5% formic acid to 95% CH3CN-1.0% formic acid in 3.5 minutes) on a Waters Atlantis dC18 (50 mm×2.1 mm) column at room temperature against a calibration curve prepared at known compound concentrations ranging from 0.005 to 50 μM. The concentration in the supernatant was calculated as % unbound to alum compared to control; the % bound to alum was calculated as 100% minus % unbound.

The subject of a further data set is five different strains. In words: Strain coverage of sera after immunization with modified 5CVMB. The following applies: compound pre-adsorbed to aluminium hydroxide. The format is in vivo, MenB. From the text: 2010 claiming priority from U.S. Ser. No. 61/237,576 (SEQ ID NO: 126 therein).
Data set [2] is described as follows: Muscle levels 24 hours after intramuscular injection. The following applies: 24 hours after intramuscular injection (100 μg) with protein antigens, Balb/C mice.
The subject of data set [3] is serum cytokines (IL-6, mKC, MCP-1). The experiment in a line: Serum cytokines 24 hours after immunization. The format is in vivo. Here is the method:
Serum cytokines are measured 24 hours after immunization with compound 6, with or without aluminium hydroxide adjuvant, or with buffer alone. Levels of IL-6 and mKC are both about ˜4-fold higher after administration of compound 6 without adjuvant, and levels of MCP-1 are ˜20-fold higher (compared to vehicle alone). […] Similarly, adsorption to aluminium hydroxide adjuvant decreases both the proportion of CD4+ T-cells which are also CD69+ and the proportion of CD19+ B-cells which are also CD86+, and this effect is seen in both the spleen and in draining lymph nodes. For example, adsorption reduces the proportion of CD86+ B-cells from ˜75% to ˜15%.

For data set [4], the system named is CD4+ T-cells, CD19+ B-cells. The experiment in a line: Activation markers on T-cells and B-cells in spleen and draining lymph nodes. It counts as in vivo.
The subject of a further data set is strain NZ98. In words: Serum bactericidal antibody (SBA) assay after immunization with 5CVMB. The format is in vivo, MenB. To be noted: compound pre-adsorbed to aluminium hydroxide adjuvant (25 μg or 100 μg) vs adjuvant alone or compound alone. Here is the method: The MenB antigens are tested for in vivo immunogenic potency using a serum bactericidal antibody (SBA) assay.

Where [5] appears, read: with aluminium hydroxide adjuvant.
Setting [6] is: without aluminium hydroxide adjuvant.
The mark [7] stands for this setting: in combination with aluminium hydroxide adjuvant.

Turning to `Cc1cc(OCCOCCOCCP(=O)(O)O)ccc1CCc1cnc2c(N)nc3cc(CCC(=O)O)ccc3c2c1` [Compound 20, 3-(5-amino-2-(2-methyl-4-(2-(2-(2-phosphonoethoxy)ethoxy)ethoxy)phenethyl)benzo[f][1,7]naphthyridin-8-yl)propanoic acid], in data set [1], the “% bound to alum” value amounted to 97.0%. The “strain coverage compared to aluminium hydroxide alone” value in the data set on five different strains is reported as “improves the strain coverage”. In addition, the “muscle level of compound” value in data set [2] (setting [5]) is on record as “readily detected”; in data set [2] (setting [6]), “undetectable”.
In the case of `Cc1ccc2c(c1)nc(N)c1ncc(CCc3ccc(OCCOCCOCCC(F)(F)P(=O)(O)O)cc3C)cc12` [Compound 6, 3-(2-(2-(4-(2-(5-amino-8-methylbenzo[f][1,7]naphthyridin-2-yl)ethyl)-3-methylphenoxy)ethoxy)ethoxy)-1,1-difluoropropylphosphonic acid], the “% bound to alum” value in data set [1] was 98.2%. The “serum IL-6 level compared to vehicle alone” value is listed as under 2 fold in data set [3] (setting [7]) and about 4 fold in data set [3] (without adjuvant). The entries for the “serum MCP-1 level compared to vehicle alone” value in data set [3] (setting [7]) and in data set [3] (without adjuvant) were under 2 fold and about 20 fold, respectively. Besides, the entries for the “serum mKC level compared to vehicle alone” value in data set [3] (setting [7]) and in data set [3] (without adjuvant) were under 2 fold and about 4 fold, respectively. The “proportion of CD86+ B-cells” value is about 15% in data set [4] (adsorbed to aluminium hydroxide adjuvant) and about 75% in data set [4] (without adsorption to aluminium hydroxide adjuvant). Besides, in data set [4] (adsorbed vs unadsorbed, spleen and draining lymph nodes), the “effect of adsorption on proportion of CD4+ T-cells which are also CD69+” value is listed as “decreases”. Besides, the “bactericidal (SBA) titer against strain NZ98” value in the data set with strain NZ98 is given as “large increase in SBA titer”. For the same compound, the “muscle level of compound” value in data set [2] (setting [5]) was “readily detected”; in data set [2] (setting [6]), “undetectable”.
